According to PubChem BioAssay (NCI):
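Compound exposure: 48 hours, 5 concentrations, 96-well plates. The concentration for full growth arrest is given as TGI.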

Assays:
Assay in all cases: NCI-60 cell line screen, 48 h
[1] = system: A549 NSCLC
[2] = system: K-562 leukemia
[3] = system: IGROV1 ovarian
[4] = system: KM12 colon
[5] = system: 786-0 renal
[6] = system: OVCAR-4 ovarian
[7] = system: SK-MEL-5 melanoma
[8] = system: DMS 273 small cell lung
[9] = system: RPMI-8226 leukemia
[10] = system: HL-60(TB) leukemia
[11] = system: SK-MEL-2 melanoma
[12] = system: RXF 393 renal
[13] = system: U251 CNS
[14] = system: HCT-15 colon
[15] = system: LXFL 529 NSCLC
[16] = system: NCI-H522 lung
[17] = system: HCT-116 colon
[18] = system: CCRF-CEM leukemia
[19] = system: HT29 colon
[20] = system: HOP-18 NSCLC
[21] = system: SNB-75 CNS
[22] = system: SK-OV-3 ovarian
[23] = system: UACC-62 melanoma
[24] = system: CAKI-1 renal
[25] = system: SNB-19 CNS
[26] = system: SW-620 colon
[27] = system: SNB-78 CNS
[28] = system: HOP-92 NSCLC
[29] = system: M14 melanoma
[30] = system: NCI-H460 lung
[31] = system: LOX IMVI melanoma
[32] = system: UACC-257 melanoma
[33] = system: OVCAR-3 ovarian
[34] = system: SK-MEL-28 melanoma
[35] = system: HOP-62 NSCLC
[36] = system: OVCAR-8 ovarian
[37] = system: M19-MEL melanoma
[38] = system: XF 498 CNS
[39] = system: NCI-H226 lung
[40] = system: MALME-3M melanoma
[41] = system: RXF-631 renal
[42] = system: SN12C renal
[43] = system: SF-268 CNS
[44] = system: EKVX NSCLC
[45] = system: KM20L2 colon
[46] = system: NCI-H23 lung
[47] = system: ACHN renal
[48] = system: DLD-1 colon
[49] = system: TK-10 renal
[50] = system: OVCAR-5 ovarian
[51] = system: COLO 205 colon
[52] = system: SF-295 CNS
[53] = system: UO-31 renal
[54] = system: SR leukemia
[55] = system: SF-539 CNS
[56] = system: HCC-2998 colon
[57] = system: MOLT-4 leukemia
[58] = system: DMS 114 small cell lung
[59] = system: A498 renal

Measured: TGI

COC1(OC)CC2CCCCC2=C(C)N1S(=O)(=O)c1ccccc1 (stereo not given)
not listed: [56] | [57] | [58] | [59]
> 100 µM: all other assays above

O=C(O)C1CCC(=O)N1C(=O)C(Cl)c1ccccc1 (stereo not given)
not listed: [12] | [54] | [55]
> 100 µM: all other assays above

COc1ccc(NC(=O)NS(=O)(=O)c2ccc(C)cc2)nn1
not listed: [12] | [17] | [54]
> 100 µM: all other assays above

Nc1ccc(C(=O)N/C(=C\C=C\c2ccco2)c2nc3c4c(ccc3[nH]2)C(=O)c2ccccc2C4=O)cc1
82 µM: [47] | [49]
81.3 µM: [22]
17.9 µM: [53]
58.3 µM: [48]
78.6 µM: [11]
55.6 µM: [57]
97 µM: [1]
62.1 µM: [21]
95 µM: [12]
not listed: [10] | [30] | [39] | [54]
> 100 µM: all other assays above

N#CC1C(=O)C(=O)N(c2ccccc2)C1=O (stereo not given)
not listed: [1] | [10] | [18] | [48] | [54] | [57]
> 100 µM: all other assays above
